Laboratory results taken from US6835695B2, “Herbicidal Compositions” (Aventis CropScience GmbH, priority 2000, dated 2004).

Tested on: monocotyledonous and dicotyledonous weed plants
Assay: Post-emergence greenhouse test, herbicidal action scored visually (weeds not split)
Format: in vivo
Settings: with Genapol X 150, X 200, O 200 or Sapogenat T130, T 200, T 300, T 400, T 500 at e.g. 50, 100, 300, 500 g/ha, vs no surfactant or low-EO surfactant (Genapol O 060, Sapogenat T 040)
Method: Seeds or rhizome pieces of monocotyledonous and dicotyledonous weed plants were placed in sandy loamy soil in plastic pots, covered with soil and grown in the greenhouse under favorable growth conditions. Three weeks after sowing, the test plants were treated in the three-leaf stage. The compounds according to the invention which were formulated in the form of wettable powders or emulsion concentrates were sprayed onto the green plant parts at an application rate of 600 to 800 l of water/ha (converted), in various dosages. After the test plants had been left to stand in the greenhouse under optimum growth conditions for 3 to 4 weeks the effect of the preparations was scored visually by comparison with untreated controls.

SMILES	action of the herbicide when combined with a high-EO surfactant (herbicide 200 g/ha)	action of the herbicide when combined with a high-EO surfactant (herbicide 80 g/ha)
CS(=O)(=O)c1ccc(C(=O)C2C(=O)CCCC2=O)c([N+](=O)[O-])c1 [Herbicide A1]	increased markedly	–
CCS(=O)(=O)c1ccc(C(=O)C2C(=O)CCCC2=O)c(Cl)c1C1=NOC(CC#N)C1 (stereo not shown) [Herbicide A4]	–	increased markedly
CCOCC1CC(c2c(S(=O)(=O)CC)ccc(C(=O)C3C(=O)CCCC3=O)c2Cl)=NO1 (stereo not shown) [Herbicide A6]	–	increased markedly
CS(=O)(=O)c1ccc(C(=O)C2C(=O)CCCC2=O)c(Cl)c1COCC(F)(F)F [Herbicide A9]	–	increased markedly
